Experimental data published in patent publication US6489166B1, “Plant regeneration method for mature seed-derived callus in zoysiagrass” (Korea Kumho Petrochemical Co., Ltd., priority 2001, dated 2002).
Where two headings read alike, the source gives them in different places.

Tests used:
[1] = test system: Type I calli derived from mature seeds of zoysiagrass; details: for Calli with green shoot (%) / Number of shoots per callus lump / Shoots over 2 mm (%): Type I calli, 2 weeks
Procedure: To examine the effects of various sugars on the plant regeneration efficiency from calli, the type I calli were dissected into lumps with a diameter of 2 mm and grown on the MS media containing 1 mg/L TDZ and 3% (w/v) fructose, galactose, glucose, maltose, or sucrose. For each treatment, 3 MS plates, each with 25 calli, were used. […] To determine the optimal concentration of maltose, the type I calli were grown on the MS media supplemented with various concentrations of maltose at 1.5, 3.0, 4.5, 6.0, 7.5, or 9%.
The effects of different sugars on the plant regeneration efficiency from calli were examined using the shoot induction media (SIM) supplemented with different sugars.
Type I calli were cultured on the MS medium containing 1 mg/L TDZ for 2 weeks. Each value in the second column represents a mean calculated from 25 calli per each experiment. Each value in the third column represents a mean calculated from 10 calli for each experiment.
Type I calli were cultured on the MS medium containing 1 mg/L TDZ and various concentrations of maltose for 2 weeks.

[2] = test system: callus derived from mature seeds of zoysiagrass; assay: Morphology (types I-IV) of callus induced with growth hormone combinations; type: cell-based, Zoysia japonica Steud.; details: 6-benzylaminopurine 0 mg/L, MS, 3 months
Procedure: (§1) To examine the effects of plant growth hormones on the callus induction efficiency and the callus morphology, sterilized seeds were placed and cultured on the MS plates supplemented with 4 mg/L thiamine-HCl and 100 mg/L α-ketoglutaric acid. The MS plates, each with a diameter of 9 cm, were further supplemented with various amounts of 2,4-dichlorophenoxyacetic acid (0, 1, 2, 4, 8 mg/L) and 6-benzylaminopurine (0, 0.02, 0.2, 2, 4 mg/L). One hundred seeds were grown per each MS plate, and 3 plates were used for each treatment group. After three months, the number of seeds from which calli had been induced was counted. For the morphological classification of calli, calli were induced and grown on the MS media supplemented with 6-benzylaminopurine and 2,4-dichlorophenoxyacetic acid under the identical condition as described above for three months. They could be morphologically classified into four distinct groups (I-IV), based on the callus morphology, color, and rigidity.
Calli induced on the MS media supplemented with different concentration combinations of 2,4-dichlorophenoxyacetic acid and 6-benzylaminopurine were morphologically and physiologically analysed. Four distinct callus types (types I to IV) could be apparently discriminated by callus color, morphology, and rigidity (FIG. 1).
Seeds were plated on the MS media containing 4 mg/L thiamine-HCl, 100 mg/L α-ketoglutaric acid, and different concentration combinations of 2,4-dichlorophenoxyacetic acid and 6-benzylaminopurine for 3 months. Callus morphologies were rated by; type I: with yellow and differentiated structure, type II: with white, non-friable, and compact structure, type III: with yellow, friable, and compact structure, Type IV: with whitish yellow, friable, soft, and watery appearance. Type I˜III represents the sum of the numbers of types I to III.

[3] = test system: mature seeds of zoysiagrass; assay: Callus induction from mature seeds on MS media with growth hormone combinations; type: cell-based, Zoysia japonica Steud.; details: for Callus producing seeds (%) / Number of callus producing seeds: 6-benzylaminopurine 0 mg/L, MS, 3 months
Procedure: Seeds of zoysiagrass (Zoysia japonica Steud.), from which seed coats were first removed, were sterilized by soaking in 70% ethyl alcohol for 1 min and subsequently in 5% sodium hypochlorite solution supplemented with 0.001% (v/v) Tween 20 for 15 min. The sterilized seeds were then thoroughly rinsed with sterilized distilled water 3-4 times. They were then germinated and grown for 2 weeks on the N6 media (pH 5.8) containing 1 mg/L 2,4-dichlorophenoxyacetic acid, 3% sucrose, and 0.2% gelite and subject to callus induction. The callus induction and growth was carried out in a controlled environment culture room set at 26° C. and 70% humidity in the dark.
as §1
To investigate the effects of plant growth hormones on the callus induction, the mature seed-derived callus induction rates were measured on the MS media supplemented with different amounts of 2,4-dichlorophenoxyacetic acid and 6-benzylaminopurine after grown for three months.
Seeds were plated and grown on the MS media containing 4 mg/L thiamine-HCl, 100 mg/L α-ketoglutaric acid, and different concentration combinations of 2,4-dichlorophenoxyacetic acid and 6-benzylaminopurine for 3 months.

[4] = test system: Type I calli derived from mature seeds of zoysiagrass; assay: Effects of cytokinins on shoot induction from callus; type: cell-based, Zoysia japonica Steud.; details: 44 Type I calli tested, MS with 30 g/L maltose, 2 weeks
[5] = test system: Type I calli derived from mature seeds of zoysiagrass; assay: as above; type: cell-based, Zoysia japonica Steud.; details: for Number of shoots over 5 mm / Number of shoots per callus lump: Type I calli, MS with 30 g/L maltose, 2 weeks
Procedure: The media were additionally supplemented with 1 or 4 mg/L of kinetin, 6-benzylaminopurine, or TDZ. Each treatment consisted of 3 MS plates, each with 16 calli.

[6] = maltose 15 g/L, MS with 1 mg/L TDZ
[7] = maltose 30 g/L, MS with 1 mg/L TDZ
[8] = maltose 45 g/L, MS with 1 mg/L TDZ
[9] = maltose 60 g/L, MS with 1 mg/L TDZ
[10] = maltose 75 g/L, MS with 1 mg/L TDZ
[11] = maltose 90 g/L, MS with 1 mg/L TDZ
[12] = sugar 30 g/L, MS medium with 1 mg/L TDZ
[13] = 2,4-dichlorophenoxyacetic acid 1 mg/L
[14] = 2,4-dichlorophenoxyacetic acid 2 mg/L
[15] = 2,4-dichlorophenoxyacetic acid 4 mg/L
[16] = 2,4-dichlorophenoxyacetic acid 8 mg/L

`OC[C@H]1O[C@H](O[C@H]2[C@H](O)[C@@H](O)C(O)O[C@@H]2CO)[C@H](O)[C@@H](O)[C@@H]1O` (mixture of isomers) [Maltose, maltose] was tested, and the “Colour of leaf and stem margins of regenerated plants” value [1] was “exhibited color caused by accumulation of anthocyanin-related pigments”, the “Physical stress on cultured cells (anthocyanin accumulation in regenerated shoots)” value [1] was “confers a physical stress on the cultured cells” and the “Calli with green shoot (%)” value [1, 6] was 37.3%. For the same molecule, the “Number of shoots per callus lump” value [1, 6] was 9.9 ± 0.1, the “Shoots over 2 mm (%)” value [1, 6] was 45.2 ± 3.4% and the “Calli with green shoot (%)” value [1, 7] was 36.0%. The “Number of shoots per callus lump” value [1, 7] was 12.9 ± 1.2, the “Shoots over 2 mm (%)” value [1, 7] was 51.4 ± 3.9% and the “Calli with green shoot (%)” value [1, 8] was 32.0%. The “Number of shoots per callus lump” value [1, 8] was 10.2 ± 1.3, the “Shoots over 2 mm (%)” value [1, 8] was 32.1 ± 3.6% and the “Calli with green shoot (%)” value [1, 9] was 29.3%. The “Number of shoots per callus lump” value [1, 9] was 4.9 ± 0.6, the “Shoots over 2 mm (%)” value [1, 9] was 14.5 ± 5.5% and the “Calli with green shoot (%)” value [1, 10] was 30.7%. For the same molecule, the “Number of shoots per callus lump” value [1, 10] was 8.3 ± 0.9, the “Shoots over 2 mm (%)” value [1, 10] was 27.3 ± 4.0% and the “Calli with green shoot (%)” value [1, 11] was 28.0%. For the same molecule, the “Number of shoots per callus lump” value [1, 11] was 2.5 ± 0.3, the “Shoots over 2 mm (%)” value [1, 11] was 6.7 ± 0.2% and the “Calli with green shoot (%)” value [1, 12] was 33.3 ± 2.7%. The “Number of shoots per callus lump” value [1, 12] was 9.4 ± 0.3 and the “Shoots over 2 mm (%)” value [1, 12] was 46.4 ± 5.0%.

For `O=C(O)COc1ccc(Cl)cc1Cl` [2,4-dichlorophenoxyacetic acid], the “Calli Type I˜III (sum of types I to III) (%)” value (“Calli Type I˜III … (%)” for short) [2, 13] was 8.5%, the “Calli showing Type I morphology (%)” value [2, 13] was 4.3% and the “Calli showing Type II morphology (%)” value [2, 13] was 0 (0) %. For the same molecule, the “Calli showing Type III morphology (%)” value [2, 13] was 4.3%, the “Calli showing Type IV morphology (%)” value [2, 13] was 91.5% and the “Number of calli Type I˜III (sum of types I to III)” value (“Number of calli Type I˜III” below) [2, 13] was 4. The “Number of calli showing Type I morphology” value [2, 13] was 2, the “Number of calli showing Type II morphology” value [2, 13] was 0 (0) and the “Number of calli showing Type III morphology” value [2, 13] was 2. For the same molecule, the “Number of calli showing Type IV morphology” value [2, 13] was 43, the “Calli Type I˜III … (%)” value [2, 14] was 5.6% and the “Calli showing Type I morphology (%)” value [2, 14] was 0 (0) %. The “Calli showing Type II morphology (%)” value [2, 14] was 0 (0) %, the “Calli showing Type III morphology (%)” value [2, 14] was 5.6% and the “Calli showing Type IV morphology (%)” value [2, 14] was 94.4%. The “Number of calli Type I˜III” value [2, 14] was 1, the “Number of calli showing Type I morphology” value [2, 14] was 0 (0) and the “Number of calli showing Type II morphology” value [2, 14] was 0 (0). For the same molecule, the “Number of calli showing Type III morphology” value [2, 14] was 1, the “Number of calli showing Type IV morphology” value [2, 14] was 17 and the “Calli Type I˜III … (%)” value [2, 15] was 5.3%. For the same molecule, the “Calli showing Type I morphology (%)” value [2, 15] was 0 (0) %, the “Calli showing Type II morphology (%)” value [2, 15] was 0 (0) % and the “Calli showing Type III morphology (%)” value [2, 15] was 5.3%. The “Calli showing Type IV morphology (%)” value [2, 15] was 94.7%, the “Number of calli Type I˜III” value [2, 15] was 1 and the “Number of calli showing Type I morphology” value [2, 15] was 0 (0). The “Number of calli showing Type II morphology” value [2, 15] was 0 (0), the “Number of calli showing Type III morphology” value [2, 15] was 1 and the “Number of calli showing Type IV morphology” value [2, 15] was 18. For the same molecule, the “Calli Type I˜III … (%)” value [2, 16] was 0 (0) %, the “Calli showing Type I morphology (%)” value [2, 16] was 0 (0) % and the “Calli showing Type II morphology (%)” value [2, 16] was 0 (0) %. For the same molecule, the “Calli showing Type III morphology (%)” value [2, 16] was 0 (0) %, the “Calli showing Type IV morphology (%)” value [2, 16] was 100% and the “Number of calli Type I˜III” value [2, 16] was 0 (0). The “Number of calli showing Type I morphology” value [2, 16] was 0 (0), the “Number of calli showing Type II morphology” value [2, 16] was 0 (0) and the “Number of calli showing Type III morphology” value [2, 16] was 0 (0). For the same molecule, the “Number of calli showing Type IV morphology” value [2, 16] was 38, the “Callus producing seeds (%)” value [3, 13] was 15.5% and the “Number of callus producing seeds” value [3, 13] was 47. For the same molecule, the “Callus producing seeds (%)” value [3, 14] was 10.7%, the “Number of callus producing seeds” value [3, 14] was 18 and the “Callus producing seeds (%)” value [3, 15] was 15.7%. For the same molecule, the “Number of callus producing seeds” value [3, 15] was 19, the “Callus producing seeds (%)” value [3, 16] was 11.1% and the “Number of callus producing seeds” value [3, 16] was 38. For the same molecule, the “Fate of induced calli” value ([3]; MS media with higher than 4 mg/L of the hormone) was “the calli became brownish as they grew and eventually died”.

For `O=C(CO)[C@@H](O)[C@H](O)[C@H](O)CO` [Fructose, fructose], the “Calli with green shoot (%)” value [1, 12] was 17.3 ± 2.7%, the “Number of shoots per callus lump” value [1, 12] was 4.4 ± 0.8 and the “Shoots over 2 mm (%)” value [1, 12] was 12.6 ± 3.0%.

For `O=C[C@H](O)[C@@H](O)[C@@H](O)[C@H](O)CO` [Galactose, galactose], the “Calli with green shoot (%)” value [1, 12] was 0%, the “Number of shoots per callus lump” value [1, 12] was 0 and the “Shoots over 2 mm (%)” value [1, 12] was 0%.

In the case of `c1coc(CNc2ncnc3[nH]cnc23)c1` [Kinetin, kinetin], the “Number of calli with shoots” value ([4]; growth regulator 1 mg/L) is reported as 8, the “Number of calli with shoots” value ([4]; growth regulator 4 mg/L) is reported as 7 and the “Number of shoots over 5 mm” value ([5]; growth regulator 1 mg/L) is reported as 0. The “Number of shoots per callus lump” value ([5]; growth regulator 1 mg/L) was 3.0, the “Number of shoots over 5 mm” value ([5]; growth regulator 4 mg/L) was 0 and the “Number of shoots per callus lump” value ([5]; growth regulator 4 mg/L) was 1.7.

For `OC[C@H]1O[C@@](CO)(O[C@H]2O[C@H](CO)[C@@H](O)[C@H](O)[C@H]2O)[C@@H](O)[C@@H]1O` [Sucrose, sucrose], the “Calli with green shoot (%)” value [1, 12] was 45.3 ± 9.3%, the “Number of shoots per callus lump” value [1, 12] was 4.5 ± 0.1 and the “Shoots over 2 mm (%)” value [1, 12] was 4.5 ± 0.2%.

With `O=C(Nc1ccccc1)Nc1cnns1` [TDZ, thidiazuron] the “Number of calli with shoots” value ([4]; growth regulator 1 mg/L) was 17, the “Number of calli with shoots” value ([4]; growth regulator 4 mg/L) was 10 and the “Number of shoots over 5 mm” value ([5]; growth regulator 1 mg/L) was 14. The “Number of shoots per callus lump” value ([5]; growth regulator 1 mg/L) was 4.8, the “Number of shoots over 5 mm” value ([5]; growth regulator 4 mg/L) was 1 and the “Number of shoots per callus lump” value ([5]; growth regulator 4 mg/L) was 4.1. The “Growth of regenerated plants” value ([5]; high concentration of TDZ) was “severely retarded”, the “Morphology of regenerated plants” value ([5]; high concentration of TDZ) was “plants with abnormal morphology were observed at a high frequency” and the “Plant regeneration and further growth” value ([5]; only the TDZ included) was “plant regeneration was observed, but the plants did not continue growing”.
